Reference: US20120226031A1, “PALMARUMYCIN BASED INHIBITORS OF THIOREDOXIN AND METHODS OF USING SAME” (ARIZONA BOARD OF REGENTS, ACTING ON BEHALF OF THE …, priority 2005, published 2012)
Read-outs that look alike come from different tables or passages of the source.

What was measured:
[1] = target: T1, human thioredoxin reductase (Homo sapiens, UniProt Q16881); test: Inhibition of purified human thioredoxin reductase (TrxR/TR); assay type: biochemical
T1 construct: (placenta); from tissue; host or cells: human placenta
T1 sequence (Q16881 151-649 limits assumed): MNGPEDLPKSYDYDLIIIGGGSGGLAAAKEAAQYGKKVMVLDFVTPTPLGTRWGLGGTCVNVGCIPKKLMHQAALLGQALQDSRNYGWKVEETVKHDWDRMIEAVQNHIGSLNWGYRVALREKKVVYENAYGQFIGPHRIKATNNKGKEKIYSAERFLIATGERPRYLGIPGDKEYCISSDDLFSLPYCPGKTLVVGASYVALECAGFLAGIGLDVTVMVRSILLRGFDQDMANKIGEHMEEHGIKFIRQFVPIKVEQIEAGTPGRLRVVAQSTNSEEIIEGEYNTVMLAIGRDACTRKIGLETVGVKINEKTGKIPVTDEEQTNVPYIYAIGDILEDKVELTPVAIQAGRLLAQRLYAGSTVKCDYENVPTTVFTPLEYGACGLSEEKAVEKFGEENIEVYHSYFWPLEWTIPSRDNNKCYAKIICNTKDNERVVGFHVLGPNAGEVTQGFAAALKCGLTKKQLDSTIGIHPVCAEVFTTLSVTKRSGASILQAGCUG

[2] = system: MCF-7 human breast cancer cells; test: MCF-7 breast cancer cell growth inhibition; assay type: cell-based
Protocol: MCF-7 human breast cancer cells were grown in medium containing 1 μM selenium (Se) for 7 days which increased cellular thioredoxin reductase activity by about 5 fold as previously reported.

Aqueous solubility = assay type: physicochemical
[3] = Stability in fresh mouse plasma at room temperature; assay type: in vitro ADME
Protocol: (§1) Two metabolite peaks could be seen at 5 minutes, but were undetectable by 30 minutes.

[4] = Plasma levels in mice after i.v. administration; assay type: in vivo, mouse; design: dose or concentration left out as unconfirmed; conditions: after PX-916 i.v. to mice
Protocol: as §1

[5] = pH dependent stability in water / 0.1M sodium phosphate buffer; assay type: physicochemical; conditions: for half-life at 100 g/ml / T1/2: 100 g/ml in 0.1M sodium phosphate buffer
Protocol: PX-916 was stable as a stock solution in ethanol at room temperature with a half life of >5 days. […] Therefore, for in vitro studies PX-916 was used as a stock solution in ethanol, and for in vivo studies made fresh in pH 4.0 buffer vehicle.
Further palmarumycin analogs were synthesized and tested. The following analogs were synthesized: eee269-II, eee86-III, eee263-II and eee273-II. The stability of the analogs was measured in various solutions.

[6] = Stability of prodrugs in ES1e mouse plasma (formation of parent compound); assay type: in vitro ADME; conditions: first 20 min of incubation at 1 mg/ml and 33° C.
Protocol: (§2) The stability of the analogs and formation of the parent compound in plasma was measured and is presented in FIG. 7, FIG. 8 and Table 6 (measured by the formation of parent compound over the first 20 min of incubation at 1 mg/ml and at 33° C.), below.

[7] = Stability of prodrugs in human plasma (formation of parent compound); assay type: in vitro ADME; conditions: first 20 min of incubation at 1 mg/ml and 33° C.
Protocol: as §2

[8] = Stability of prodrugs in mouse plasma (formation of parent compound); assay type: in vitro ADME; conditions: first 20 min of incubation at 1 mg/ml and 33° C.
Protocol: as §2

[9] = Table 1, read-out: TrxR inhibitory activity IC50
[10] = Homo sapiens, MCF7, Table 1, read-out: MCF-7 growth inhibition IC50
[11] = Table 2, read-out: Inhibition of human thioredoxin reductase IC50

| SMILES | IC50 [1, 9] [nM] | IC50 [2, 10] [nM] | IC50 [1, 11] [nM] | half-life at 100 g/ml ([5]; pH 4.0) [h] | half-life at 100 g/ml ([5]; pH 7.0) [h] | further results |
| --- | --- | --- | --- | --- | --- | --- |
| CC(C)C(N)C(=O)Oc1ccc2c3c(cccc13)OC1(C=CC(=O)c3ccccc31)O2 (stereo not shown) [Compound 11] | 620 | 2200 | – | – | – | – |
| O=C1C=CC2(Oc3cccc4c(OCCN5CCOCC5)ccc(c34)O2)c2ccccc21 (stereo not shown) [Compound 13] | 1600 | 1200 | – | – | – | – |
| O=C1C=CC2(Oc3cccc4c(OCCN5CCOCC5)ccc(c34)O2)c2cccc(O)c21 (stereo not shown) [Compound 14] | 4200 | 2600 | – | – | – | – |
| O=C1C=CC2(Oc3cccc4c(OC5OC(CO)C(O)C(O)C5O)ccc(c34)O2)c2cccc(O)c21 (stereo not shown) [eee86-III] | – | – | – | > 100 | > 100 | – |
| CC(C)(N)C(=O)Oc1ccc2c3c(cccc13)OC1(C=CC(=O)c3c(O)cccc31)O2 (stereo not shown) [eee263-II] | – | – | – | – | – | T1/2 ([5]; pH 4.0): >100 h; T1/2 ([5]; pH 7.0): >100 h; formation of parent compound, ES1e mouse plasma [6]: 82 area/20 min; formation of parent compound, Human plasma [7]: 81 area/20 min; formation of parent compound, Mouse Plasma [8]: 42 area/20 min |
| CC(C)(NNC1CC(=O)c2c(O)cccc2C12Oc1cccc3c(O)ccc(c13)O2)C(N)=O (stereo not shown) [eee269-II] | – | – | – | > 100 | 0.2 | stability in aqueous solutions ([5]; in words): unstable in aqueous solutions |
| NC(Cc1ccccc1)C(=O)Oc1ccc2c3c(cccc13)OC1(C=CC(=O)c3c(O)cccc31)O2 (stereo not shown) [eee273-II] | – | – | – | > 100 | > 100 | solubility at 1 mg/ml (Aqueous solubility; 1 mg/ml, plasma stability study): very insoluble |

The next lines start with results.

| IC50 [1, 9] [nM] | IC50 [2, 10] [nM] | IC50 [1, 11] [nM] | half-life at 100 g/ml ([5]; pH 4.0) [h] | half-life at 100 g/ml ([5]; pH 7.0) [h] | SMILES | further results |
| --- | --- | --- | --- | --- | --- | --- |
| – | – | 3200 | – | – | COc1ccc2c3c(cccc13)OC1(C=CC(=O)c3ccccc31)O2 (stereo not shown) [PX-911] | IC50 ([2]; Homo sapiens, MCF7, Table 2, read-out: Inhibition of MCF-7 breast cancer cell growth IC50): 9200 nM |
| 200 | 2600 | 270 | – | – | O=C1C=CC2(Oc3cccc4c(O)ccc(c34)O2)c2cccc(O)c21 (stereo not shown) [PX-960] | solubility (Aqueous solubility; water, read-out: water solubility): < 100 µg/mL; half life in mouse plasma [3]: about 31 minutes; half-life [3]: ~0.517 h; IC50 ([2]; Homo sapiens, MCF7, read-out: Inhibition of MCF-7 breast cancer cell growth IC50): 4100 nM; detection of PX-960 in plasma ([4]; at 5 minutes): only a very small peak; detection of PX-960 in plasma ([4]; at 30 minutes): No PX-960 was detected |
| – | – | 350 | – | – | O=C1C=CC2(Oc3cccc4cccc(c34)O2)c2cccc(O)c21 [palmarumycin C1, palmarumycin CP1, reference compound] | solubility in aqueous media (Aqueous solubility; in words): almost insoluble in aqueous media; IC50 ([2]; Table 2, read-out: Inhibition of MCF-7 breast cancer cell growth IC50): 1000 nM; IC50 ([2]; text b151, summary of Table 2, read-out: concentration of cell growth inhibition of MCF-7 cells): 1000 to 3000 nM |
